In patent US20120039808A1, “Brain Tumor Stem Cell Differentiation Promoter, and Therapeutic Agent for Brain Tumor” (The University of Tokyo, priority 2009, published 2012):
“Also recorded” adds a separate entry of the source.

Legend:
[1] = test system: glioma-initiating cells (TGS-01, TGS-04); assay: Sphere formation assay; type: cell-based, human
Experimental: GICs were cultivated for seven days using a non-tissue-culture-treated-flask with vent cap (BD Bioscience). The floating spheres were counted for each sample within five fields of vision under a microscope.
To clarify the role of TGF-β signals in glioma-initiating cells, first the effects due to TGF-β signal inhibition were examined. A sphere formation ability assay was implemented in the presence of either TGF-β or a TGF-β inhibitor (SB431542, 1 μM).
SB431542 can inhibit not only the TGF-β type I receptor (ALK5), but also activin/nodal type I receptor signals, so to identify the role of TGF-β signals, the effects of a TGF-β receptor II/Fc chimera on glioma-initiating cells were examined. The glioma-initiating cells were separated into single cells, and a sphere assay implemented in the presence of either human TGF-βRII/Fc chimera (1 μg/mL), or IgG1Fc (1 μg/mL) as a control.

[2] = test system: Nestin, Musashi, GFAP, Tuj1 positive glioma-initiating cells; assay: Immunostaining of neural precursor and differentiation markers; type: cell-based, human
Experimental: Glioma-initiating cells (GICs) were seeded on glass slides that had been coded using poly-L-ornithine (Sigma) and fibronectin (Sigma), and were then cultured for seven days together with various ligands or inhibitors in serum-free culture. The cells were fixed using 3.7% paraformaldehyde, and then the cell membrane was made permeable using 0.3% Triton […] including PBS, and incubated together with various antibodies.
(§1) Next, the effects of TGF-β (100 μM) or SB431542 (1 μM) were examined using flow cytometry. In the presence of TGF-β inhibitors, the percentage of CD133-positive cells in the glioma spheres was reduced. (See FIG. 3A.) Further, to examine the expression of neural precursor cell markers or neural cell differentiation markers in the glioma spheres, the spheres (TGS-01) were separated into single serum-free culture, and seeded on glass slides that had been coded using poly-L-ornithine (Sigma) and fibronectin (Sigma), and were then cultured for seven days together with TGF-β (100 μM) or the inhibitor SB431542 (1 μM). The cells were fixed using 3.7% paraformaldehyde, and the cell membrane was made permeable using 0.3% Triton […] including PBS, and incubated together with antibodies before immunostaining was implemented.

[3] = test system: Oct-4, NANOG, and LIF expression; assay: Expression of stem cell markers Oct-4, NANOG, LIF; type: cell-based, human
Excerpt: (§2) Quantitative real-time PCR was implemented according to the method by Ikushima et al. (EMBO J. 2008, 27: 2955-2965). All samples were implemented in triplicate. The data was normalized using glyceraldehyde 3-phosphate dehydrogenase (GAPDH).
(See FIG. 14.) Further, it has been reported that NANOG and LIF are induced in many cells by stimulating TGF-β. (Xu et al., Cell Stem Cell, 2008, 3: 206; Bruna et al., Cancer Cell, 2007, 11: 147-160.)

[4] = test system: SMAD complexes binding to Sox4 promoters; assay: Chromatin immunoprecipitation with SMAD2 and SMAD3 antibodies; type: cell-based, human; conditions: TGS-01; 1.5 hours; TGF-β 100 μM or SB431542 1 μM
Experimental: (§3) Chromatin immunoprecipitation was implemented using the method described by Koinuma et al. (Molecular and Cellular Biology, 2009, 29:172-186, 10.1128/MCB, 01038-08). After reverse cross-linking, the DNA was processed using proteinase K, and refined using a PCR purification kit (Qiagen). The DNA was eluted into 30 μL of TE, and used in either PCR or quantitative real-time PCR. The primers used in the PCR are as described below.
To verify that Sox4 is a direct TGF-β marker, chromatin immunoprecipitation assay was implemented using antibodies to SMAD2 and SMAD3, which are DNA binding signal mediators for the TGF-β signals. Specifically, TGS-01 cells were processed for 1.5 hours using either TGF-β (100 μM), or SB431542 (1 μM), and the eluted DNA was supplied for either real-time PCR or RT-PCR. In real-time PCR, the measured values were normalized using the first introns of hypoxanthine phosphoribosyltransferase (HPRT). […] (See FIG. 6F.)

Sox2 mRNA = Sox2 mRNA expression by quantitative real-time PCR; type: cell-based, human
Experimental: as §2
In addition, siRNA (siSMAD2 and siSMAD3) were transfected to SMAD2 and SMAD3 in TGS-01 cells, and incubated for 24 hours, and then processed for TGF-β (100 μM), and the expression levels measured. […] (See FIG. 4B).
The induction of Sox2 expression by TGF-β was observed 24 hours after stimulation, but not observed after three hours. (See FIG. 4A.) Further, the effects of TGF-β on Sox2 expression in the presence of cycloheximide, which is a protein synthesis inhibitor, were examined. TGF-β (100 μM) processing was implemented for 24 hours, and after processing the TGF-β for 30 minutes, the cycloheximide processing was started, and the Sox2 expression levels were measured. In the presence of cycloheximide, which is a protein synthesis inhibitor, the induction of Sox2 expression was reduced. From these facts, it is thought that Sox2 expression is not induced directly by TGF-β, but rather, that it is controlled by other factors that are induced by TGF-β.

Sox4 mRNA = Sox4 mRNA expression by quantitative real-time PCR; type: cell-based, human; conditions: for Sox4 mRNA expression: TGS-01 and TGS-04, three hours and 24 hours, TGF-β 100 μM or SB431542 1 μM
Excerpt: as §2

[5] = test system: Sox4 recruitment to the Sox2 enhancer region; assay: Chromatin immunoprecipitation with Sox4 antibodies; type: cell-based, human; conditions: TGS-01; 24 hours; TGF-β 100 μM or SB431542 1 μM
Experimental: as §3
To verify that this control is direct, chromatin immunoprecipitation assay was implemented using Sox4 antibodies. It has previously been reported that the enhancer region located in the Sox2 gen 3′ flanking region is important for controlling Sox2 expression. (Chew et al., Molecular and Cellular Biology, 2005, 25:6031-6046; Tomioka et al., Nucleic Acids Research, 2002, 30: 3202-3213.) This region includes the consensus binding motif CATTGTA to Sox4. […]
Here, TGS-01 cells were processed for 24 hours using either TGF-β (100 μM), or SB431542 (1 μM), and the eluted DNA analyzed using quantitative real-time PCR. The measured values were normalized using HPRT first intron quantities. […] Further, to examine the effects of Sox4 knockdown on sox2 expression induction by TGF-β, siRNA was stained, and after for 24 hours, was processed for a further 24 hours using TGF-β (100 μM), and the Sox2 mRNA expression levels measured using real-time PCR. […]

[6] = test system: CD133-positive cells in glioma spheres; assay: Flow cytometry of CD133-positive cells; type: cell-based, human
Experimental: The cells were separated into single cells, and marked using phycoerythrin marker CD133 antibodies. The expression levels were measured using EXPO32 ADC software through a Beckman C EPICS XL flow cytometer.
as §1

Sox2 protein = Sox2 protein level by immunoblotting; type: cell-based, human; conditions: 24-hour processing; TGF-β 100 μM or SB431542 1 μM
Experimental: The cells were dissolved in a buffer including 1% Nonidet P-40, 20 mM Tris-hydrochloride (pH7.4), 150 mM sodium chloride, 1 mM PMSF, 1% aprotinin, and 5 mM EDTA. The proteins refined from the cytolized product was supplied to SDS-PAGE, and transferred to a Fluoro Trans W Membrane (Pall). Immunoblotting was implemented using various types of antibodies.
Moreover, it was also verified that the 24-hour processing using TGF-β (100 μM) or SB431542 (1 μM) suppressed the expression of Sox2 protein levels. (See FIG. 4C.) In the diagram, α-tubulin is the loading control.

[7] = test system: TGS-01 cells transplanted intracranially; assay: Intracranial proliferation assay; type: in vivo, BALB/c nu/nu mice
Experimental: Glioma-initiating cells (living cells […] in 5 μL of DMEM/F12 culture) were injected stereotaxically at a depth of 3 mm into the right cerebral hemisphere of five-week-old female BALB/c nu/nu mice. All animal testing was implemented according to the policies of the University of Tokyo animal testing committee.
Specifically, adenovirus-Sox4 or adenovirus-LacZ staining was implemented, and 5×10^4 TGS-01 cells either unprocessed or after 24 hours processing using a TGF-β inhibitor were transplanted intracranially. TGF-β is well-known to promote glioma cell proliferation, so to classify the results into effects on growth and effects in differentiation, SB431542 processing was implemented as pre-processing and not implemented continuously. Six mice were used for each condition, and evaluated using Kaplan-Meier analysis. The p values were determined using the long-rank test. […] Further, the results of histological analysis of the samples dissected 30 days after intracranial transplant are shown in FIG. 11 (Right). Tissue sections were stained using hematoxylin and eosin (HE).

[8] = 24 hours after processing, TGF-β 100 μM or SB431542 1 μg (so in the source)
[9] = cells pre-processed with SB431542, 30 days after intracranial transplant

TGF-β
sphere formation ability ([1]; adding TGF-β): did not greatly influence
marker expression ([2]; adding TGF-β (100 μM [sic]), seven days): did not greatly influence
LIF expression ([3]; TGS-01 or TGS-04 cells, TGF-β signals): did not induce
expression of Oct-4, NANOG, and LIF ([3]; processing using TGF-β or an inhibitor): not greatly affected
binding of SMAD complexes to Sox4 promoters [4]: bound directly
expression of Sox2 mRNA (Sox2 mRNA; [8]): induced; also recorded: observed
induction of Sox2 expression (Sox2 mRNA; three hours after TGF-β stimulation): not observed
Sox4 mRNA expression (Sox4 mRNA): induced
Sox4 recruitment to the Sox2 enhancer region [5]: increased
CD133-positive ratio ([6]; adding TGF-β (100 μM [sic])): did not greatly influence
expression of Sox2 protein levels (Sox2 protein): suppressed

NC(=O)c1ccc(-c2nc(-c3ccc4c(c3)OCO4)c(-c3ccccn3)[nH]2)cc1 [SB431542]
sphere formation ability of glioma-initiating cells ([1]; SB431542 1 μM, seven days culture): conspicuously reduced
spherical growth pattern of spheres that had once formed ([1]; SB431542 added to formed spheres): became adhesion cells
sphere formation ability ([1]; TGS-01 over-expressing Sox4 (adenovirus-Sox4 vs adenovirus-LacZ), SB431542 1 μM, seven days): fall in sphere formation ability was alleviated
sphere formation abilities ([1]; glioma-initiating cells over-expressing Sox2, compared to LacZ over-expressing cells): reduced only slightly
percentages of Nestin-positive cells and GFAP-positive cells ([2]; TGS-01 over-expressing Sox4, SB431542, seven days): no major changes
percentage of GFAP-positive cells ([2]; cells over-expressing Sox2): did not increase
percentage of Nestin-positive cells ([2]; cells over-expressing Sox2): did not fall
binding of SMAD complexes to Sox4 promoters [4]: clearly controlled
survival period of the mice ([7]; TGS-01 (adenovirus-LacZ) pre-processed 24 hours with SB431542 vs unprocessed control, Kaplan-Meier): significantly longer
neurological symptoms [7, 9]: did not show any neurological symptoms
tumors on pathological examination using HE staining [7, 9]: did not reveal any tumors
extension of survival periods ([7]; glioma-initiating cells over-expressing Sox4, pre-processed with SB431542): did not shown any effects
expression of Sox2 mRNA (Sox2 mRNA; [8]): suppressed
expression of Sox2 mRNA (Sox2 mRNA; subsequently for seven days, SB431542 1 μg (so in the source)): low expression level continued
Sox4 mRNA expression (Sox4 mRNA): down-regulated
Sox4 recruitment to the Sox2 enhancer region [5]: clearly reduced
percentage of CD133-positive cells in the glioma spheres ([6]; SB431542 1 μM): reduced
expression of Sox2 protein levels (Sox2 protein): suppressed

C[C@@H]1C[C@@H]([C@H](O)CC2CC(=O)NC(=O)C2)C(=O)[C@@H](C)C1 [cycloheximide]
induction of Sox2 expression by TGF-β in the presence of cycloheximide (Sox2 mRNA; TGF-β 100 μM (so in the source) 24 hours, cycloheximide started after 30 minutes): reduced
Sox4 induction by TGF-β in the presence of cycloheximide (Sox4 mRNA): not influenced

CC1=C2C[C@H]3[C@@H](CC=C4C[C@@H](O)CC[C@@]43C)[C@@H]2CC[C@]12O[C@@H]1C[C@H](C)CN[C@H]1[C@H]2C [cyclopamine]
effects on sphere formation compared with SB431542 ([1]; TGS-01, cyclopamine 2.5, 5, 10 μM vs SB431542 1 μM): smaller than those of SB431542
effect on sphere formation of the two drugs combined ([1]; TGS-01, cyclopamine combined with SB431542 1 μM): no additional or synergistic effect
sphere formation ability of TGS-01 cells ([1]; cyclopamine 2.5, 5, and 10 μM, seven days): reduced

B1: TGF-βRII/Fc: human TGF-β receptor II/Fc chimera (protein)
chain: TIPPHVQKSVNNDMIVTDNNGAVKFPQLCKFCDVRFSTCDNQKSCMSNCSITSICEKPQEVCVAVWRKNDENITLETVCHDPKLPYHDFILEDAASPKCIMKEKKKPGETFFMCSCSSDECNDNIIFSEEYNTSNPD
modifications: left off: a dimerising Fc or GST
notes: human TGF-β receptor II/Fc chimera
efficiency in forming spheres ([1]; human TGF-βRII/Fc chimera 1 μg/mL, IgG1Fc 1 μg/mL as control): low
